Results: ChEMBL document CHEMBL5214997, “6-Thioguanosine Monophosphate Prodrugs Display Enhanced Performance against Thiopurine-Resistant Leukemia and Breast Cancer Cells” (J Med Chem, 2022)
The source made the active and inactive calls. No cut-off for these calls is given here.

Legend:
HEK-293T [1] = assay: Antiproliferative activity against HEK293T cells with high HGPRT expression incubated for 48 hrs by CellTiter-Glo2 assay; assay type: functional, cell-based; conditions: Homo sapiens
K562 [2] = assay: Antiproliferative activity against human K562 cells with low HGPRT expression incubated for 48 hrs by CellTiter-Glo2 assay; assay type: functional, cell-based; conditions: K562, 48 h
THP-1 = assay: Antiproliferative activity against human THP-1 cells with low HGPRT expression incubated for 48 hrs by CellTiter-Glo2 assay; assay type: functional, cell-based; conditions: THP-1, 48 h
SK-BR-3 [3] = assay: Antiproliferative activity against human SK-BR-3 cells with low HGPRT expression incubated for 48 hrs by CellTiter-Glo2 assay; assay type: functional, cell-based; conditions: SK-BR-3, 48 h
HEK-293T [4] = assay: Effect on p21 mRNA expression in HEK293T cells assessed as increase in labeling efficiency at 100 uM incubated for 16 hrs and measured by TUC-Seq DUAL method; assay type: functional, cell-based; conditions: Homo sapiens
[5] = Effect on CCNT1 mRNA expression in HEK293T cells assessed as percentage of labeled transcripts at 100 uM incubated for 2 hrs and measured by TUC-Seq DUAL method; assay type: functional, Homo sapiens, HEK-293T
[6] = Effect on p21 mRNA expression in HEK293T cells assessed as percentage of labeled transcripts at 100 uM incubated for 2 hrs and measured by TUC-Seq DUAL method; assay type: functional, Homo sapiens, HEK-293T
[7] = Effect on ND1 mRNA expression in HEK293T cells assessed as percentage of labeled transcripts at 100 uM incubated for 2 hrs and measured by TUC-Seq DUAL method; assay type: functional, Homo sapiens, HEK-293T
K562 [8] = assay: Antiproliferative activity against human K562 cells with low HGPRT expression assessed as cell survival at 1000 uM and incubated for 48 hrs by CellTiter-Glo2 assay; assay type: functional; conditions: read-out: Activity
SK-BR-3 [9] = assay: Drug resistance of human SK-BR-3 cells assessed as percentage of resistant cells at 1 mM; assay type: functional
K562 [10] = assay: Downregulation of HGPRT mRNA expression in human K562 cells at 1 mM measured after 48 hrs by qPCR analysis; assay type: functional, cell-based
SK-BR-3 [11] = assay: Downregulation of HGPRT mRNA expression in human SK-BR-3 cells at 1 mM measured after 48 hrs by qPCR analysis; assay type: functional, cell-based

| Structure (SMILES) | EC50 (K562 [2]) | EC50 (THP-1) | EC50 (HEK-293T [1]) | EC50 (SK-BR-3 [3]) | Activity (HEK-293T [4]) | Activity [5] | Activity [6] | Activity [7] | viability at 1000 µM (K562 [8]) | Activity (SK-BR-3 [9]) | Activity (K562 [10]) | Activity (SK-BR-3 [11]) |
| --- | --- | --- | --- | --- | --- | --- | --- | --- | --- | --- | --- | --- |
| Nc1nc2c(ncn2[C@@H]2O[C@H](COP3(=O)OCc4ccccc4O3)[C@@H](O)[C@H]2O)c(=S)[nH]1 (some centres not stated) | 7.2 µM | 1.4 µM | 14 µM | 25 µM | Active | – | – | – | – | – | – | – |
| CC(=O)Oc1ccc(COP(=O)(O)OC[C@H]2O[C@@H](n3cnc4c(=S)[nH]c(N)nc43)[C@H](O)[C@@H]2O)cc1 | 2.3 µM | 0.67 µM | 6.9 µM | 201 µM | Active | – | – | – | – | – | – | – |
| CC(=O)Oc1ccc(COP(=O)(OCc2ccc(OC(C)=O)cc2)OC[C@H]2O[C@@H](n3cnc4c(SCc5ccc(OC(C)=O)cc5)nc(N)nc43)[C@H](O)[C@@H]2O)cc1 | 2.6 µM | 0.34 µM | 6.7 µM | 3.5 µM | – | – | – | – | – | – | – | – |
| Nc1nc2c(ncn2[C@@H]2O[C@H](COP3(=O)OCc4cc(Cl)ccc4O3)[C@@H](O)[C@H]2O)c(=S)[nH]1 (some centres not stated) | 5.6 µM | 0.4 µM | 15 µM | 42 µM | Active | – | – | – | – | – | – | – |

The remaining compounds from weak to strong by EC50 (K562 [2]), led by results:

| EC50 (K562 [2]) | EC50 (THP-1) | Structure (SMILES) | EC50 (HEK-293T [1]) | EC50 (SK-BR-3 [3]) | Activity (HEK-293T [4]) | Activity [5] | Activity [6] | Activity [7] | viability at 1000 µM (K562 [8]) | Activity (SK-BR-3 [9]) | Activity (K562 [10]) | Activity (SK-BR-3 [11]) |
| --- | --- | --- | --- | --- | --- | --- | --- | --- | --- | --- | --- | --- |
| 92 µM | 33 µM | CCC(CC)COC(=O)[C@H](C)NP(=O)(OC[C@H]1O[C@@H](n2cnc3c(=S)[nH]c(N)nc32)[C@H](O)[C@@H]1O)Oc1ccccc1 (some centres not stated) | – | – | – | – | – | – | – | – | – | – |
| 62 µM | 8.4 µM | CC(C)(C)C(=O)SCCOP(=O)(OCCSC(=O)C(C)(C)C)OC[C@H]1O[C@@H](n2cnc3c(=S)[nH]c(N)nc32)[C@H](O)[C@@H]1O | 246 µM | – | – | – | – | – | – | – | – | – |
| 1.3 µM | 0.35 µM | Nc1nc(=S)c2ncn([C@@H]3O[C@H](CO)[C@@H](O)[C@H]3O)c2[nH]1 [THIOGUANOSINE] | 4.7 µM | – | – | 2.5% | 2.5% | 2.5% | – | – | – | – |
| 0.74 µM | 0.27 µM | Nc1nc2[nH]cnc2c(=S)[nH]1 [THIOGUANINE] | 3.6 µM | – | – | – | – | – | 15% | 40% | Active | Active |
